Where two headings read alike, the source gives them in different places.
Legend:
[1] = biological target: KRAS-G12C/SOS1 (Homo sapiens (Human), UniProt Q07889); test: Detection of inhibitory effects of compounds on KRAS-G12C/SOS1 (KRASG12C/SOS binding kit, HTRF); conditions: Em665/620, read-out: IC50, inhibitory activity on interaction of KRAS-G12C/SOS1
In short: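 HTRF binding of Tag2-KRAS-G12C to Tag1-SOS1 with compounds (10-point 3-fold dilution from 5,000 nM) for 15 min at room temperature, then anti-Tag1-Tb and anti-Tag2-XL665 for 120 min at 4° C. Em665/620 read; inhibition normalised to control wells, IC50 from variable-slope log(inhibitor) fit.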

[2] = tested on: p-ERK of PC-9 cells; test: p-ERK HTRF assay in PC-9 cells; format: cell-based; conditions: PC-9 lung cancer cells, 1 hour treatment, read-out: IC50, inhibitory activity on p-ERK of PC-9 cells
Experimental: IC50 Values of Compounds Determined by p-ERK HTRF Assay in PC-9 Cells
Experimental objective: an inhibitory effect of the test compounds on the phosphorylation of PC-9ERK of lung cancer cells at a cellular level was evaluated by detecting the phosphorylation of ERK.
• PRMI 1640 medium (Invitrogen-11875093) • 0.25% pancreatin (Invitrogen-25200056) • Phosphoric acid buffer salt solution (PBS, pH 7.4) (Invitrogen-10010023) • Double-antibody (PS) (Invitrogen-15140122) • Fetal bovine serum (FBS) (Gibco-10091148) • Trypan blue (Gibco-15250061) • 10-cm culture dish (Corning-430167) • 10-mL pipette (Costar-4488) • Pipettor (Sartorius-17009031) • 15-mL centrifuge tube (Corning-430052) • 50-mL centrifuge tube (Corning-430829) • Cryotube (Thermo-377267) • 1.5-mL EP tube (Axygen-MCT-150-C-S) • Cell incubator (Thermo-371) • Microscope (Olympus-CKX41) • Centrifuge (Flying Pigeon-TDL-80-2B) • Cell counter (Countstar-IC-1000) • Envision (Perkin Elmer) • Spark 10M (TECAN) • Phospho-ERK1/2 (Thr202/Tyr204) Experimental kit (Cisbio, Cat. No. 64AERPEG) • PC-9 cells: RPMI1640+10% FBS+1% PS
• 1) PBS, 0.25% pancreatin, and a cell culture medium were placed in a water-bath kettle at 37° C. for preheating; • 2) cells were observed under a microscope, a fusion degree was evaluated, and no bacterial and fungi pollution was confirmed; • 3) a culture solution was removed, the cells were washed with 5 mL of PBS and digested with 2 mL of the 0.25% trypsin, the digestion was terminated with 10 mL of the fresh cell culture medium, a culture dish was rinsed, and the cells were transferred to a 15-mL centrifuge tube; • 4) the collected cells were centrifuged at 1,000 rpm for 5 minutes; • 5) after the centrifugation, the supernatant was discarded, the cells were resuspended in 5 mL of the cell culture medium, 20 μL of the resuspended cells were aspirated, and the number and viability of viable cells were recorded; • 6) the cell culture medium was used and the cell density was adjusted (PC-9:10,000 cells/well, and 45 μL per well); • 7) in a 384-well plate, 45 μL of a cell suspension per well was transferred according to an experimental design figure; and • 8) the cells were incubated overnight at 37° C. and 5% CO2.
• 1) The compounds were diluted from the stock concentration to 10 mM with 100% DMSO (Trametinib was diluted to 1 mM), then 3-fold diluted into 10 points (5 μL of the diluted compounds with the concentration of 10 mM were transferred to 10 μL of the DMSO in an LDV plate), and centrifuged at 1,000 rpm/min for 1 minute; • 2) 5 μL of the diluted compounds of step 1) were transferred to an inter plate 1 containing 45 μL of the cell culture medium (the compounds were diluted from 1,000× to 100×); • 3) 5 μL of the diluted compounds of step 2) were transferred to an inter plate 2 containing 45 μL of the cell culture medium (the compounds were diluted from 100× to 10×); • 4) 5 μL of the compounds were pipetted from the inter plate 2 into a cell culture plate (the compounds were diluted from 10 folds to 1 fold), the final concentrations of the test compounds were 10,000 nM, 3333.33 nM, 1111.11 nM, 370.37 nM, 123.46 nM, 41.15 nM, 13.72 nM, 4.57 nM, 1.52 nM, and […], the solution was centrifuged at 1,000 rpm/min for 1 minute, and the final content of the DMSO was 0.1%; and • 5) the cells were treated in an incubator at 37° C. for 1 hour. […]

Sequence of KRAS-G12C/SOS1 (Q07889 whole entry, stated change not applied): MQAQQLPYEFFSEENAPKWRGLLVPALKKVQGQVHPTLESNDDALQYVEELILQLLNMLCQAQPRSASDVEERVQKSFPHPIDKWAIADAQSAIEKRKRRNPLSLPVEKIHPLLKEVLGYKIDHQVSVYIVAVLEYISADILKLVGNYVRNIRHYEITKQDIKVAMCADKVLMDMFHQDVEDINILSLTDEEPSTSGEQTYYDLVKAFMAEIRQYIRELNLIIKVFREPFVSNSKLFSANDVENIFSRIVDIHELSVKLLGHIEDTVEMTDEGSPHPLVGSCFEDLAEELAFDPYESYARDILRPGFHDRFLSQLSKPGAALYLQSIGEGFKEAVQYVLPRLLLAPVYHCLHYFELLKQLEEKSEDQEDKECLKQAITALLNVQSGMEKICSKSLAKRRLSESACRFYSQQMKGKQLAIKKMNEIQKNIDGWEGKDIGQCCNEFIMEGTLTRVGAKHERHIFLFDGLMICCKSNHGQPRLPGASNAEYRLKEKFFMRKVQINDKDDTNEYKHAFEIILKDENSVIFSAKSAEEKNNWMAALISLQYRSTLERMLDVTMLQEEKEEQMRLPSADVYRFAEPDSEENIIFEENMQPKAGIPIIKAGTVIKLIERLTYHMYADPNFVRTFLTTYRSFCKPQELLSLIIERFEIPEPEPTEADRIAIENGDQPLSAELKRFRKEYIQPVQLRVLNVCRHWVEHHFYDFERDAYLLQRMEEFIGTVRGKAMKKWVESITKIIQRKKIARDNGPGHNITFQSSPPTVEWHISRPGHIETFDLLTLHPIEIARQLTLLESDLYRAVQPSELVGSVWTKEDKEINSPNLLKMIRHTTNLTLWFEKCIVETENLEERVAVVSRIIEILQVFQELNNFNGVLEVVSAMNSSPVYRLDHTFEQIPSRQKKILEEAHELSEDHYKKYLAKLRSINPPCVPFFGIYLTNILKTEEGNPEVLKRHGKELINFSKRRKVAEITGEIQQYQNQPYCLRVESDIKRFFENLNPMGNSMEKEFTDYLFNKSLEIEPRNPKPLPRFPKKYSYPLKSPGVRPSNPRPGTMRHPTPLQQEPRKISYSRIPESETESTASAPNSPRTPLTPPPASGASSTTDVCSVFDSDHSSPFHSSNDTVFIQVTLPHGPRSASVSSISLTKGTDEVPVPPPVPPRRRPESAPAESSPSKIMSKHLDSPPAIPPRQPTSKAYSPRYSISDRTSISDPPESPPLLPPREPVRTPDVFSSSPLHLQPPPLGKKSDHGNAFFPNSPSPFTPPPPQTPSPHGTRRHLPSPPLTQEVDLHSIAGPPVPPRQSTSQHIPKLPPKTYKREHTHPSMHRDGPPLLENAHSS

SMILES | IC50 [1] [nM] | IC50 ([2]; Homo sapiens, PC-9, 1 h) [nM] | IC50 [2] [nM]
C[C@@H](Nc1ccnc2cnc(C3(O)CCN(C(=O)NCCO)CC3)cc12)c1cccc(C(F)F)c1F [Compound B-163] | ≤ 100 | ≤ 300 | –
CC(=O)N1CCN(c2cc3c(N[C@H](C)c4cccc(C(F)F)c4F)c(F)cnc3cn2)CC1 [Compound B-111] | ≤ 100 | ≤ 300 | –
CC(=O)N1CCC(N)(c2cc3c(N[C@H](C)c4cccc(C(F)F)c4F)ccnc3cn2)CC1 [Compound B-51] | ≤ 100 | ≤ 300 | –
C[C@@H](Nc1ccnc2cnc(N3CCCCS3(=O)=O)cc12)c1cccc(C(F)F)c1F [Compound B-60] | ≤ 100 | ≤ 300 | –
C[C@@H](Nc1ccnc2cnc(C3(O)CCN(C(=O)c4ccncc4)CC3)cc12)c1cccc(C(F)F)c1F [Compound B-131] | ≤ 100 | ≤ 300 | –
C[C@@H](Nc1ccnc2cnc(C3(O)CCN(C(=O)Cc4ccncc4)CC3)cc12)c1cccc(C(F)F)c1F [Compound B-139] | ≤ 100 | ≤ 300 | –
CC(=O)N1CCN(c2cc3c(N[C@H](C)c4cccc(C(F)F)c4F)ccnc3cn2)CC1CO (stereo partly shown) [Compound B-44] | ≤ 100 | ≤ 300 | –
CC(=O)N1C2CCC1CC(c1cc3c(N[C@H](C)c4cccc(C(F)F)c4F)ccnc3c(C)n1)C2 (stereo partly shown) [Compound B-67] | ≤ 100 | 300 to 1000 | –
C[C@@H](Nc1ccnc2cnc(N3CC[C@H](N)C3)cc12)c1cccc(C(F)F)c1F [Compound B-33] | ≤ 100 | 300 to 1000 | –
C[C@@H](Nc1ccnc2cnc(C3(O)CCN(C(=O)[C@H]4CNCCO4)CC3)cc12)c1cccc(C(F)F)c1F [Compound B-136] | ≤ 100 | > 1000 | –
C[C@H](O)C(=O)N1CCC(O)(c2cc3c(N[C@H](C)c4cccc(C(F)F)c4F)ccnc3c(-c3cnn(C)c3)n2)CC1 [Compound B-172] | 100 to 500 | 300 to 1000 | –
CC(=O)NC1CCN(c2cc3c(N[C@H](C)c4cccc(C(F)F)c4F)ccnc3cn2)CC1 [Compound B-37] | ≤ 100 | > 1000 | –
CC(=O)N1CCC(O)(c2cc3c(N[C@H](C)c4cccc(C(F)(F)F)c4F)ccnc3cn2)CC1 [Compound B-112] | ≤ 100 | ≤ 300 | –
CC(=O)N1CCN(c2cc3c(N[C@H](C)c4cccc(C(F)F)c4F)ccnc3c(-c3cnn(C)c3)n2)CC1 [Compound B-169] | ≤ 100 | ≤ 300 | –
COC1(c2cc3c(N[C@H](C)c4cccc(C(F)F)c4F)ccnc3cn2)CCC(O)CC1 (stereo partly shown) [Compound B-82] | ≤ 100 | ≤ 300 | –
C[C@@H](Nc1ccnc2cnc(C3(O)CCN(C(=O)N(C)CCO)CC3)cc12)c1cccc(C(F)F)c1F [Compound B-164] | ≤ 100 | ≤ 300 | –
C[C@H](O)C(=O)N1CCC(O)(c2cc3c(N[C@H](C)c4cccc(C(F)F)c4F)c(F)cnc3cn2)CC1 [Compound B-124] | ≤ 100 | ≤ 300 | –
CC(=O)N1CCN(c2cc3c(N[C@H](C)c4cccc(C(F)F)c4F)ccnc3c(C)n2)CC1 [Compound B-62] | ≤ 100 | ≤ 300 | –
C[C@@H](Nc1ccnc2cnc(C3(O)CCN(C(=O)[C@@H]4CCOC4)CC3)cc12)c1cccc(C(F)F)c1F [Compound B-133] | ≤ 100 | ≤ 300 | –
C[C@@H](Nc1ccnc2cnc(C3(O)CCN(C(=O)CN4CCOCC4)CC3)cc12)c1cccc(C(F)F)c1F [Compound B-148] | ≤ 100 | ≤ 300 | –
Cc1nc(C2(O)CCC(O)CC2)cc2c(N[C@H](C)c3cccc(C(F)F)c3F)ccnc12 (stereo partly shown) [Compound B-70] | ≤ 100 | 300 to 1000 | –

SMILES | IC50 [1] [nM] | IC50 ([2]; Homo sapiens, PC-9, 1 h) [nM] | IC50 [2] [nM]
CC(=O)N1CCC(O)(c2cc3c(N[C@H](C)c4cccc(C(F)F)c4F)ccnc3c(-c3cnn(C)c3)n2)CC1 [Compound B-170] | ≤ 100 | ≤ 300 | –
CC(=O)N1CCN(c2cc3c(N[C@H](C)c4cccc(C(F)F)c4F)ccnc3cn2)[C@H](CO)C1 [Compound B-47] | ≤ 100 | ≤ 300 | –
C[C@@H](Nc1ccnc2cnc(C3(O)CCN(C(=O)[C@H]4C[C@@H](O)CN4C)CC3)cc12)c1cccc(C(F)F)c1F [Compound B-147] | ≤ 100 | > 1000 | –
C[C@@H](Nc1ccnc2cnc(C3(O)CCN(C(=O)CN4CC[C@@H](O)C4)CC3)cc12)c1cccc(C(F)F)c1F [Compound B-150] | ≤ 100 | > 1000 | –
C[C@@H](Nc1ccnc2cnc(C3(O)CCOCC3)cc12)c1cccc(C(F)F)c1F [Compound B-103] | ≤ 100 | 300 to 1000 | –
C[C@@H](Nc1ccnc2cnc(C3(O)CCN(C(=O)C(C)(C)O)CC3)cc12)c1cccc(C(F)F)c1F [Compound B-121] | ≤ 100 | ≤ 300 | –
C[C@@H](Nc1ccnc2cnc(C3(O)CCN(C(=O)C[C@@H]4CCOC4)CC3)cc12)c1cccc(C(F)F)c1F [Compound B-140] | ≤ 100 | ≤ 300 | –
C[C@@H](Nc1ccnc2cnc(N3CC[C@@H](N)C3)cc12)c1cccc(C(F)F)c1F [Compound B-31] | ≤ 100 | 300 to 1000 | –
C[C@@H](Nc1ccnc2cnc(C3(O)CCN(C(=O)CN4CC[C@H](O)C4)CC3)cc12)c1cccc(C(F)F)c1F [Compound B-151] | ≤ 100 | > 1000 | –
Cc1cc(N[C@H](C)c2cccc(C(F)F)c2F)c2cc(C3(O)CCC(O)CC3)ncc2n1 (single isomer, unassigned) [Compound B-88-P2] | ≤ 100 | 300 to 1000 | –
C[C@@H](Nc1ccnc2cnc(C3(O)CCN(CCO)CC3)cc12)c1cccc(C(F)F)c1F [Compound B-117] | ≤ 100 | 300 to 1000 | –
C[C@@H](Nc1ccnc2cnc(N3CCC(O)CC3)cc12)c1cccc(C(F)F)c1F [Compound B-24] | ≤ 100 | ≤ 300 | –
C[C@@H](Nc1ccnc2cnc(C3(O)CCC(N4CCNCC4)CC3)cc12)c1cccc(C(F)F)c1F (single isomer, unassigned) [Compound B-97-P2] | ≤ 100 | 300 to 1000 | –
CC(=O)N1CCN(c2cc3c(N[C@H](C)c4cccc(C(F)F)c4F)ccnc3cn2)C(=O)C1 [Compound B-53] | ≤ 100 | 300 to 1000 | –
C[C@@H](Nc1ccnc2cnc(C3(O)CCC(C(C)(C)O)CC3)cc12)c1cccc(C(F)(F)F)c1F (single isomer, unassigned) [Compound B-115-P2] | ≤ 100 | – | ≤ 300
CC(=O)N1CCN(c2cc(F)c3nccc(N[C@H](C)c4cccc(C(F)F)c4F)c3c2)CC1 [Compound A-100] | ≤ 100 | ≤ 300 | –
COc1nc(C2(O)CCN(C(=O)CO)CC2)cc2c(N[C@H](C)c3cccc(C(F)F)c3F)ccnc12 [Compound B-173] | ≤ 100 | ≤ 300 | –
Cc1cc(N[C@H](C)c2cccc(C(F)F)c2F)c2cc(N3CCCS3(=O)=O)ncc2n1 [Compound B-72] | ≤ 100 | 300 to 1000 | –
C[C@@H](Nc1ccnc2cnc(C3(O)CCS(=O)(=O)CC3)cc12)c1cccc(C(F)F)c1F [Compound B-91] | ≤ 100 | 300 to 1000 | –
CC(=O)N1CCN(c2cc3c(N[C@H](C)c4cccc(C(F)(F)F)c4C)ccnc3cn2)CC1 [Compound B-50] | ≤ 100 | ≤ 300 | –

Source: patent publication US20250042857A1, “SOS1 Inhibitor With Pyrido-Fused Six-Membered Ring Structure” (HAIHE BIOPHARMA CO., LTD., priority 2021, published 2025)
